Experimental data published in patent publication US10556879B2, “Retinoid compound, preparation method therefor, intermediates thereof and application thereof” (SHANGHAI INSTITUTE OF ORGANIC CHEMISTRY, CHINESE ACADEMY OF …, priority 2016, dated 2020).
Read-outs that look alike come from different tables or passages of the source.

System: tumor-repopulating cells of B16-F1 melanoma
Assay: Inhibitory activity on proliferation of tumor-repopulating cells (TRCs) of B16-F1 melanoma in 3D fibrin gel
Assay type: cell-based
Conditions: for IC50: colony tumor volume, read-out: IC50 of inhibition on TRCs of B16-F1 melanoma/μM
Experimental: B16-F1 Melanoma cells were incubated with 3D fibrin gel medium (90-Pa) for 5 days, and the desired tumor-repopulating cells of melanoma were screened (Nat. Mater. 2012, 11, 734). Subsequently, the culture medium was respectively treated with collagenase and neutral protease II, and the tumor-repopulating cells of B16-F1 melanoma were released, then the obtained repopulating cells were transferred to a freshly prepared medium to be resuspended and maintained at single-cell state. The tumor-repopulating cells of B16-F1 melanoma were inoculated in 3D fibrin gel medium (90-Pa) for 5 days, with 0.1% DMSO as the negative control group, Tazarotene and Bexarotene as the positive control drugs respectively, […] for 5 days. The colony tumor size was measured and calculated, and the inhibition rate of each drug on the tumor-repopulating cells of B16-F1 melanoma was calculated. The results of inhibitory activity of the compound of the present invention on the proliferation of tumor-repopulating cells of B16-F1 melanoma were shown in Table 2 below.

[1] = Mus musculus, B16-F1, 120 h, 10 μM, incubated 5 days, colony tumor size, read-out: Inhibition rate on TRCs of B16-F1 melanoma at a concentration of 10 μM (%)
[2] = Mus musculus, B16-F1, dose-response curve
[3] = Mus musculus, B16-F1, 10 μM (Table 3), read-out: Inhibition rate on TRCs of B16-F1 melanoma at a concentration of 10 μM/%

Row | SMILES | inhibition at 10 µM [1] [%] | further results
1 | CC1(C)CCSc2ccc(C#Cc3ccc(C(=O)O)c(O)c3)cc21 [WYC-105, 4-((4,4-dimethylthiochroman-6-yl)ethynyl)-2-hydroxybenzoic Acid] |  | inhibition at 10 µM (Mus musculus, B16-F1, 120 h, read-out: Inhibition rate on TRCs of B16-F1 melanoma at a concentration of 10 μM (%)): 64.1%
2 | CC1(C)CCSc2ccc(C#Cc3ccc(C(=O)O)c(N)c3)cc21 [WYC-212, 2-amino-4-((4,4-dimethylthiochroman-6-yl)ethynyl)benzoic Acid] | 93.2 | IC50 [2]: 2.28 µM; inhibition at 10 µM [3]: 93.2%
3 | CC1(C)CCSc2ccc(C#Cc3ncc(C(=O)O)cn3)cc21 [WYC-206, 2-((4,4-dimethylthiochroman-6-yl)ethynyl)pyrimidin-5-carboxylic acid] | 77.2 | 
4 | CC1(C)CCSc2ccc(C#Cc3cnc(C#N)nc3)cc21 [WYC-202, 2-cyano-5-((4,4-dimethylthiochroman-6-yl)ethynyl)pyrimidine] | 85.3 | 
5 | COC(=O)c1ccc(C#Cc2ccc3c(c2)C(C)(C)CCS3)c(NC(C)=O)c1 [WYC-316, methyl 3-acetamido-4-((4,4-dimethylthiochroman-6-yl)ethynyl)benzoate] | 76.2 | 
6 | CCOC(=O)c1cnc(C#Cc2ccc3c(c2)C(C)(C)CCC3(C)C)cn1 [WYC-342, ethyl 5-((5,5,8,8-tetramethyl-5,6,7,8-tetrahydronaphth-2-yl)ethynyl)pyrazin-2-carboxylate] | 77.6 | 
7 | CCOC(=O)c1cnc(C#Cc2ccc3c(c2)C(C)(C)CCS3)cn1 [WYC-322, ethyl 5-((4,4-dimethylthiochroman-6-yl)ethynyl)pyrazin-2-carboxylate] | 78.8 | 
8 | CCOC(=O)c1ccc(C#Cc2ccc3c(c2)C(C)(C)CC[S+]3[O-])c(NC(C)=O)c1 (stereo not shown) [WYC-318, ethyl 3-acetamido-4-((4,4-dimethyl-1-oxothiochroman-6-yl)ethynyl)benzoate] | 60 | 
9 | C=C(c1ccc(C(=O)O)cc1)c1cc2c(cc1C)C(C)(C)CCC2(C)C [Bexarotene, reference compound] | 63.3 | 
10 | CCOC(=O)c1cnc(C#Cc2ccc3c(c2)C(C)(C)CC[S@@+]3[O-])nc1 [WYC-209B, ethyl 2-((4,4-dimethyl-1R-oxothiochroman-6-yl)ethynyl)pyrimidin-5-carboxylate] | 98.7 | IC50 [2]: 0.22 µM; inhibition at 10 µM [3]: 98.7%
11 | COC(=O)c1ccc(C#Cc2ccc3c(c2)C(C)(C)CCS3)cc1O [WYC-101, methyl 4-((4,4-dimethylthiochroman-6-yl)ethynyl)-2-hydroxybenzoate] | 76 | 
12 | COC(=O)c1ncc(C#Cc2ccc3c(c2)C(C)(C)CCS3)cn1 [WYC-204, methyl 5-((4,4-dimethylthiochroman-6-yl)ethynyl)pyrimidin-2-carboxylate] | 25.6 | 
13 | CC1(C)CC[S+]([O-])c2ccc(C#Cc3cnc(C#N)nc3)cc21 (stereo not shown) [WYC-207, 2-cyano-5-((4,4-dimethyl-1-oxothiochroman-6-yl)ethynyl)pyrimidine] | 92.5 | IC50 [2]: 3.3 µM; inhibition at 10 µM [3]: 92.5%
14 | CCOC(=O)c1ccc(C#Cc2ccc3c(c2)C(C)(C)CC[S+]3[O-])c(F)c1 (stereo not shown) [WYC-312, ethyl 3-fluoro-4-((4,4-dimethyl-1-oxothiochroman-6-yl)ethynyl)benzoate] | 71 | 
15 | CCOC(=O)c1ccc(C#Cc2ccc3c(c2)C(C)(C)CCS3)cc1Cl [WYC-325, ethyl 2-chloro-4-((4,4-dimethylthiochroman-6-yl)ethynyl)benzoate] | 74.2 | 
16 | CC1(C)CCC(C)(C)c2cc(C#Cc3ccc(C#N)cn3)ccc21 [WYC-333, 2-((5,5,8,8-tetramethyl-5,6,7,8-tetrahydronaphth-2-yl)ethynyl)-5-cyanopyridine] | 69.1 | 

Row | SMILES | inhibition at 10 µM [1] [%] | further results
17 | CC1(C)CCC(C)(C)c2cc(C#Cc3ccc(C(=O)O)nc3)ccc21 [WYC-337, 5-((5,5,8,8-tetramethyl-5,6,7,8-tetrahydronaphth-2-yl)ethynyl)pyridin-2-carboxylic Acid] | 87.5 | 
18 | CCOC(=O)c1ccc(C#Cc2ccc3c(c2)C(c2ccccc2)=CCC3(C)C)cc1F [WYC-305, ethyl 4-((5,5-dimethyl-8-phenyl-5,6-dihydronaphth-2-yl)ethynyl)-2-fluorobenzoate] | 26 | 
19 | CCOC(=O)c1cnc(C#Cc2ccc3c(c2)C(C)(C)CC[S@+]3[O-])nc1 [WYC-209A, ethyl 2-((4,4-dimethyl-1S-oxothiochroman-6-yl)ethynyl)pyrimidin-5-carboxylate] |  | Inhibition rate on TRCs of B16-F1 melanoma at a concentration of 10 μM/% (10 μM (Table 3)): 98.9%; Inhibition rate on TRCs of B16-F1 melanoma at a concentration of 10 μM (%) (10 μM, incubated 5 days, colony tumor size): 98.9%; IC50 (dose-response curve): 0.15 µM
20 | CCOC(=O)c1ncc(C#Cc2ccc3c(c2)C(C)(C)CCS3)cn1 [WYC-205, ethyl 5-((4,4-dimethylthiochroman-6-yl)ethynyl)pyrimidin-2-carboxylate] | 91.5 | 
21 | CC1(C)CCSc2ccc(C#Cc3cnc(C(=O)O)cn3)cc21 [WYC-323, 5-((4,4-dimethylthiochroman-6-yl)ethynyl)pyrazin-2-carboxylic Acid] | 76 | 
22 | CCOC(=O)c1ccc(C#Cc2ccc3c(c2)C(C)(C)CCS3)c(F)c1F [WYC-313, ethyl 2,3-difluoro-4((4,4-dimethylthiochroman-6-yl)ethynyl)benzoate] | 62.2 | 
23 | CCOC(=O)c1cnc(C#Cc2ccc3c(c2)C(C)(C)CCS3(=O)=O)nc1 [WYC-320, ethyl 2-((4,4-dimethyl-1,1-dioxothiochroman-6-yl)ethynyl)pyrimidin-5-carboxylate] | 92.6 | IC50 [2]: 1.65 µM; inhibition at 10 µM [3]: 92.6%
24 | COC(=O)c1ccc(C#Cc2ccc3c(c2)C(C)(C)CCS3)cc1N [WYC-220, methyl 2-amino-4-((4,4-dimethylthiochroman-6-yl)ethynyl)benzoate] | 65.5 | 
25 | CCOC(=O)c1ccc(C#Cc2ccc3c(c2)C(C)(C)CCS3)c(F)c1 [WYC-307, ethyl 3-fluoro-4-((4,4-dimethylthiochroman-6-yl)ethynyl)benzoate] | 70.3 | 
26 | CC1(C)CCSc2ccc(C#Cc3ccc(C(=O)O)cc3[N+](=O)[O-])cc21 [WYC-309, 3-nitro-4-((4,4-dimethylthiochroman-6-yl)ethynyl)benzoic Acid] | 56.8 | 
27 | CCOC(=O)c1ccc(C#Cc2ccc3c(c2)C(C)(C)CCS3)cc1NC(C)=O [WYC-217, ethyl 2-acetamido-4-((4,4-dimethylthiochroman-6-yl)ethynyl)benzoate] | 90.3 | 
28 | COC(=O)c1ccc(C#Cc2ccc3c(c2)C(C)(C)CCS3)c(O)c1 [WYC-107, methyl 4-((4,4-dimethylthiochroman-6-yl)ethynyl)-3-hydroxybenzoate] | 75 | IC50 [2]: 2.12 µM; inhibition at 10 µM [3]: 75%
29 | COC(=O)c1ccc(C#Cc2ccc3c(c2)C(C)(C)CCC3(C)C)c(O)c1 [WYC-332, methyl 3-hydroxy-4-((5,5,8,8-tetramethyl-5,6,7,8-tetrahydronaphth-2-yl)ethynyl)benzoate] | 55.9 | 
30 | COC(=O)c1ccc(C#Cc2ccc3c(c2)C(C)(C)CCS3)cc1OC [WYC-102, methyl 4-((4,4-dimethylthiochroman-6-yl)ethynyl)-2-methoxybenzoate] | 59.1 | 
31 | CNc1cc(C#Cc2ccc3c(c2)C(C)(C)CCS3)ccc1C(=O)OC [WYC-219, methyl 2-methylamino-4-((4,4-dimethylthiochroman-6-yl)ethynyl)benzoate] | 64.8 | 
